ChEMBL document CHEMBL3351624, “A semi-synthetic derivative of artemisinin, artesunate inhibits prostaglandin E2 production in LPS/IFNγ-activated BV2 microglia” (Bioorg Med Chem, 2014)
Activity calls are given as the source filed them. No cut-off for these calls is given here.

What was measured:
[1] = test system: BV-2; experiment: Antiinflammatory activity in mouse BV2 cells assessed as inhibition of LPS/IFNgamma-induced PGE2 production at 2 uM after 24 hrs by enzyme immunoassay; type: functional, cell-based
[2] = Antiinflammatory activity in mouse BV2 cells assessed as LPS/IFNgamma-induced PGE2 production at 4 uM after 24 hrs by enzyme immunoassay; type: functional, BV-2
[3] = test system: BV-2; experiment: Antiinflammatory activity in mouse BV2 cells assessed as inhibition of LPS/IFNgamma-induced COX2 expression at 0.5 to 4 uM after 24 hrs by Western blot; type: functional, cell-based
[4] = Antiinflammatory activity in mouse BV2 cells assessed as LPS/IFNgamma-induced COX2 expression at 4 uM after 24 hrs by Western blot; type: functional, BV-2
[5] = test system: BV-2; experiment: Antiinflammatory activity in mouse BV2 cells assessed as inhibition of LPS/IFNgamma-induced mPGES1 expression at 0.5 to 4 uM after 24 hrs by Western blot; type: functional, cell-based
[6] = test system: BV-2; experiment: Antiinflammatory activity in mouse BV2 cells assessed as inhibition of LPS/IFNgamma-induced IL6 production at 0.5 to 4 uM pre-incubated before LPS/IFNgamma challenge and measured 24 hrs post LPS/IFNgamma challenge by ELISA method; type: functional, cell-based
[7] = test system: BV-2; experiment: Antiinflammatory activity in mouse BV2 cells assessed as inhibition of LPS/IFNgamma-induced TNFalpha production at 1 to 4 uM pre-incubated before LPS/IFNgamma challenge and measured 24 hrs post LPS/IFNgamma challenge by ELISA method; type: functional, cell-based
[8] = Toxicity against LPS/IFNgamma-induced mouse BV2 cells assessed as cell viability at 0.5 to 4 uM pre-incubated before LPS/IFNgamma challenge and measured 24 hrs post LPS/IFNgamma challenge by MTT assay; type: cell-based; settings: bv-2, 24 h
[9] = biological target: T1, Nuclear factor NF-kappa-B complex (Homo sapiens) (UniProt Q00653+P19838+Q04206); experiment: Inhibition of NFkappaB (unknown origin) expressed in HEK293 cells assessed as reduction in TNFalpha-induced gene transcription at 0.5 to 4 uM pre-incubated for 30 mins prior to stimulation with TNFalpha for 6 hrs by luciferase reporter gene assay; type: cell-based
[10] = biological target: T1, Nuclear factor NF-kappa-B complex (Homo sapiens); experiment: Inhibition of NFkappaB (unknown origin) expressed in HEK293 cells assessed as TNFalpha-induced gene transcription at 4 uM pre-incubated for 30 mins prior to stimulation with TNFalpha for 6 hrs by luciferase reporter gene assay; type: cell-based; set-up: scale not given: the % may be the effect or the level left
[11] = test system: BV-2; experiment: Inhibition of IKK in mouse BV2 cells assessed as LPS/IFNgamma-induced IkappaB phosphorylation level at 0.5 uM pre-incubated for 30 mins before LPS/IFNgamma challenge for 1 hr by Western blot method; type: cell-based; set-up: scale not given: the % may be the effect or the level left
[12] = test system: BV-2; experiment: Inhibition of IKK in mouse BV2 cells assessed as LPS/IFNgamma-induced IkappaB phosphorylation level at 1 uM pre-incubated for 30 mins before LPS/IFNgamma challenge for 1 hr by Western blot method; type: cell-based; set-up: scale not given: the % may be the effect or the level left
[13] = test system: BV-2; experiment: Inhibition of IKK in mouse BV2 cells assessed as LPS/IFNgamma-induced IkappaB phosphorylation level at 2 uM pre-incubated for 30 mins before LPS/IFNgamma challenge for 1 hr by Western blot method; type: cell-based; set-up: scale not given: the % may be the effect or the level left
[14] = test system: BV-2; experiment: Inhibition of IKK in mouse BV2 cells assessed as LPS/IFNgamma-induced IkappaB phosphorylation level at 4 uM pre-incubated for 30 mins before LPS/IFNgamma challenge for 1 hr by Western blot method; type: cell-based; set-up: scale not given: the % may be the effect or the level left
[15] = test system: BV-2; experiment: Inhibition of IKK in mouse BV2 cells assessed as reduction in LPS/IFNgamma-induced IkappaB degradation at 0.5 to 4 uM pre-incubated for 30 mins before LPS/IFNgamma challenge for 1 hr by Western blot method; type: cell-based
[16] = test system: BV-2; experiment: Inhibition of IKK in mouse BV2 cells assessed as reduction in LPS/IFNgamma-induced IkappaB phosphorylation level at 4 uM pre-incubated for 30 mins before LPS/IFNgamma challenge for 1 hr by ELISA method; type: cell-based
[17] = test system: BV-2; experiment: Inhibition of IKK in mouse BV2 cells assessed as reduction in LPS/IFNgamma-induced IkappaB degradation at 0.5 to 4 uM pre-incubated for 30 mins before LPS/IFNgamma challenge for 1 hr by ELISA method; type: cell-based
[18] = biological target: T2, Inhibitor of nuclear factor kappa-B kinase subunit alpha (Mus musculus) (UniProt Q60680); experiment: Inhibition of LPS/IFNgamma-induced IKKalpha phosphorylation in mouse BV2 cells at 1 to 4 uM pre-incubated for 30 mins before LPS/IFNgamma challenge for 1 hr by Western blot method; type: cell-based; settings: BV-2
T2 sequence (whole entry): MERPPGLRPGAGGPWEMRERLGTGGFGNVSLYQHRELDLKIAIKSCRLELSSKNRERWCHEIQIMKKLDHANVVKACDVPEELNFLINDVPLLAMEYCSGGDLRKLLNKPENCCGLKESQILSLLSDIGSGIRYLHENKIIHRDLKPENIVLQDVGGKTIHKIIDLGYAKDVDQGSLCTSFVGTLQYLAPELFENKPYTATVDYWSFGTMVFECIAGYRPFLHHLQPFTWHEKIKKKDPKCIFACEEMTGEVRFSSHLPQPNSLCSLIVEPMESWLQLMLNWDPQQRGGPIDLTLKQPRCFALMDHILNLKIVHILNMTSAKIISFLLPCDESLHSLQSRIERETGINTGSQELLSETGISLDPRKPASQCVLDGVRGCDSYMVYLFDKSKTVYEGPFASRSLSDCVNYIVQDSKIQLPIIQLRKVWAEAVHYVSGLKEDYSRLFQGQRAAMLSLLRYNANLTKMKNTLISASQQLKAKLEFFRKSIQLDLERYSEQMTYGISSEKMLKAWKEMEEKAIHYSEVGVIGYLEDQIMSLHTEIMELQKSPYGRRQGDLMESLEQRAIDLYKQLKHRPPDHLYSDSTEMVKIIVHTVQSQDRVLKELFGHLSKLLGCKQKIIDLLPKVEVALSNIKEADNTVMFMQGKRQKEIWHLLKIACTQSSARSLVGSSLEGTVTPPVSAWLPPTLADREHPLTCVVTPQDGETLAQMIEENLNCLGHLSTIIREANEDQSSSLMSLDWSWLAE

[19] = biological target: T3, Inhibitor of nuclear factor kappa-B kinase subunit beta (Mus musculus) (UniProt O88351); experiment: Inhibition of LPS/IFNgamma-induced IKKbeta phosphorylation in mouse BV2 cells at 1 to 4 uM pre-incubated for 30 mins before LPS/IFNgamma challenge for 1 hr by Western blot method; type: cell-based; settings: BV-2
T3 sequence (whole entry): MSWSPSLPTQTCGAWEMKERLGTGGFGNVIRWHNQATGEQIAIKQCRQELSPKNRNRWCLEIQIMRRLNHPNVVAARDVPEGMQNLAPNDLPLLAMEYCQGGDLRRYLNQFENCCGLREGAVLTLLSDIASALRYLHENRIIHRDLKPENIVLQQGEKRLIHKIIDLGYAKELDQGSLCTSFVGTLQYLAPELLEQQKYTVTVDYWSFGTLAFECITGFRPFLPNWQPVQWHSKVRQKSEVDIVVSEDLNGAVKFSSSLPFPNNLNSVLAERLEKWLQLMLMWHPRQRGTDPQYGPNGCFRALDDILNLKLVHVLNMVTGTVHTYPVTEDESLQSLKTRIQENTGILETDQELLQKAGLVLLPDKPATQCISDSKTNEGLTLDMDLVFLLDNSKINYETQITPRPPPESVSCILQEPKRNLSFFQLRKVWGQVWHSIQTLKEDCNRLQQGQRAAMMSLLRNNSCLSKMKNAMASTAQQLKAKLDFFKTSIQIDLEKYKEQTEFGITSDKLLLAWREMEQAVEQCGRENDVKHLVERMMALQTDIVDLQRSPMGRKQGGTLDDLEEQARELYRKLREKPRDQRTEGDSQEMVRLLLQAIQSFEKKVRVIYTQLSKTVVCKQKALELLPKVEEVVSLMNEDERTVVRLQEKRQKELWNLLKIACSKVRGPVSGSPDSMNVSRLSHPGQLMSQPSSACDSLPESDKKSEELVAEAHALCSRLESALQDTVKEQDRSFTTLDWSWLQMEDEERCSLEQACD

[20] = biological target: T4, MAP kinase p38 (Mus musculus) (UniProt P47811+O08911+Q9WUI1+Q9Z1B7); experiment: Inhibition of LPS/IFNgamma-induced p38 phosphorylation in mouse BV2 cells at 1 to 4 uM pre-incubated for 30 mins before LPS/IFNgamma challenge for 1 hr by Western blot method; type: cell-based; settings: BV-2
[21] = biological target: T4, MAP kinase p38 (Mus musculus); experiment: Inhibition of p38 in mouse BV2 cells assessed as reduction in LPS/IFNgamma-induced MAPKAPK2 phosphorylation at 1 to 4 uM pre-incubated for 30 mins before LPS/IFNgamma challenge for 1 hr by Western blot method; type: cell-based; settings: BV-2

T1 sequence (P19838 whole entry, looked up): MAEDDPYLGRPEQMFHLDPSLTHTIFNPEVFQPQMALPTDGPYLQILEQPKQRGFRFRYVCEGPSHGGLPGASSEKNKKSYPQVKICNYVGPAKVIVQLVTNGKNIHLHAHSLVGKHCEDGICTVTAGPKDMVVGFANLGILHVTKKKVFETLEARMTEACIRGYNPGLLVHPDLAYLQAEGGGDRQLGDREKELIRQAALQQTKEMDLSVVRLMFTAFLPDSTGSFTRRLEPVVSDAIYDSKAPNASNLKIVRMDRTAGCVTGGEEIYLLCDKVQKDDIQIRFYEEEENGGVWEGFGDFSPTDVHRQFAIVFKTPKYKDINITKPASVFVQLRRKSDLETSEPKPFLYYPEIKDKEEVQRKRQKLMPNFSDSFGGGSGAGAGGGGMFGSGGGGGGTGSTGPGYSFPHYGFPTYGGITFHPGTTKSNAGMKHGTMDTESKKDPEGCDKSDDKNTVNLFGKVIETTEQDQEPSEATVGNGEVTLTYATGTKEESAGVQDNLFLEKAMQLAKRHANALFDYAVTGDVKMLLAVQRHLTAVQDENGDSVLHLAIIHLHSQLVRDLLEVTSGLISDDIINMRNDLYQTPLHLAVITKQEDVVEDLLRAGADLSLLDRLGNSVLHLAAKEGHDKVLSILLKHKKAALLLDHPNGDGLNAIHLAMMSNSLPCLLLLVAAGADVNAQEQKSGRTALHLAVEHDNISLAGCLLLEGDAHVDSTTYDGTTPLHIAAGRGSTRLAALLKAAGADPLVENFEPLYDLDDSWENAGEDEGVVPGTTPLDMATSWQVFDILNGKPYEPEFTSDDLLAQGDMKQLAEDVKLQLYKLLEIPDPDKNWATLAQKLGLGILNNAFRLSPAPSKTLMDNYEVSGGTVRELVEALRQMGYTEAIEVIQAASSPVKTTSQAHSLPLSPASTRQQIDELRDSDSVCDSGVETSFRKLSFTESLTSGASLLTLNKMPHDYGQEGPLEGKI
T1 sequence (Q00653 whole entry, looked up): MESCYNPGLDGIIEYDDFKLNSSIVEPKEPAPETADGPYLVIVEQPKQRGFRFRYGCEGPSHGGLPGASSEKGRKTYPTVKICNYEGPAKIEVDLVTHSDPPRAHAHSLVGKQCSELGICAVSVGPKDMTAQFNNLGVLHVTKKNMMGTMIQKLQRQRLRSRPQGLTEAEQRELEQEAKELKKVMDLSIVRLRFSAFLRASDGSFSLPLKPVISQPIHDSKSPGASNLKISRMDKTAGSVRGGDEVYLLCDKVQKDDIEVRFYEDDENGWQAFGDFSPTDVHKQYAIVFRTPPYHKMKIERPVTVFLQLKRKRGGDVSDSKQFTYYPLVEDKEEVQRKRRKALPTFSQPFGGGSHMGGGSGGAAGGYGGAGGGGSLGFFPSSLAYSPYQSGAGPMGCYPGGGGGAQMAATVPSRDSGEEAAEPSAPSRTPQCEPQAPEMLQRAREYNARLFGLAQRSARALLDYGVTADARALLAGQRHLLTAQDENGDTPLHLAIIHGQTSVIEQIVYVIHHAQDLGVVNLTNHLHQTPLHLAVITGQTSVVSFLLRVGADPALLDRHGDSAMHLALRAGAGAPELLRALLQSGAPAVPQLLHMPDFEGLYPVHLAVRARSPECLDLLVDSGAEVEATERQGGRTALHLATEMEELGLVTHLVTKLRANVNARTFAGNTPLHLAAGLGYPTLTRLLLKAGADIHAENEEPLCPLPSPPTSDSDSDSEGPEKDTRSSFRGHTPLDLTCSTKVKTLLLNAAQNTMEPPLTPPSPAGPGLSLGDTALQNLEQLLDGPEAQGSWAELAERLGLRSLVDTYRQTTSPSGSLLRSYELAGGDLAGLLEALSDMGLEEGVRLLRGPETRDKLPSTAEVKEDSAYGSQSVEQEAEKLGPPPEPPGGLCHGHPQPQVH
T1 sequence (Q04206 whole entry, looked up): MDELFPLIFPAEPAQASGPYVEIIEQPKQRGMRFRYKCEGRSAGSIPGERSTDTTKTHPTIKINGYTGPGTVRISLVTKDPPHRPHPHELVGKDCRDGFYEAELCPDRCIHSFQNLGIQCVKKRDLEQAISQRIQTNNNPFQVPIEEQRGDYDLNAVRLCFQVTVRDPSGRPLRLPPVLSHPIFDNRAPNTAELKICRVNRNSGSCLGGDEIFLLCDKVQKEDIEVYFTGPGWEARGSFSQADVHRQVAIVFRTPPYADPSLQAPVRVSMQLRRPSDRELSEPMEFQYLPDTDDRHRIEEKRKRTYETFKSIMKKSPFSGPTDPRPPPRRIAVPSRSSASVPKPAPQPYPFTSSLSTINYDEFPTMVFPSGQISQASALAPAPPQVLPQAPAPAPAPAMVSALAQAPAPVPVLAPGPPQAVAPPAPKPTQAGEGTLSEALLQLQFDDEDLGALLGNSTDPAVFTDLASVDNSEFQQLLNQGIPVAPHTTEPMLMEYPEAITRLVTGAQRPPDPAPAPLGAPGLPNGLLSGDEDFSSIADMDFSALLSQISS

inhibition [9]: Active
Activity [10]: 35.4%
inhibition [18]: Active
inhibition [19]: Active
inhibition [20]: Active
inhibition [21]: Active
Compound: C[C@H]1[C@H](OC(=O)CCC(=O)O)O[C@@H]2O[C@@]3(C)CC[C@H]4[C@H](C)CC[C@@H]1[C@@]24OO3 [ARTESUNATE]
inhibition [1]: Active
Activity [2]: 38.8%
inhibition [3]: Active
Activity [4]: 55%
inhibition [5]: Active
inhibition [6]: Dose-dependent effect
inhibition [7]: Active
Activity [8]: Non-toxic
Activity [11]: 68.8%
Activity [12]: 56.4%
Activity [13]: 44.3%
Activity [14]: 44.4%
inhibition [15]: Active
inhibition [16]: Active
inhibition [17]: Active
